Laboratory results: patent publication US11883398B2, “Dipeptidylpeptidase 4 inhibition enhances lymphocyte trafficking, improving both naturally occurring tumor immunity and immunotherapy” (INSTITUT PASTEUR, priority 2015, dated 2024)
Each block holds one molecule with its values, some of them ahead of it.

Experiments:
DPP9 = DPP9 (Homo sapiens, UniProt Q86TI2); conditions: Verspohl 2012; Huan et al. 2015; cited from earlier work
DPP8 = DPP8 (Homo sapiens, UniProt Q6V1X1); conditions: Verspohl 2012; Huan et al. 2015; cited from earlier work
[1] = tested on: DPP8/9 over-expressing cells; conditions: cited from earlier work; for selectivity for DPP4 over DPP8 and 9: Huan et al. 2015; for selectivity towards DPP4: Madar et al. 2006, Gilibili et al. 2015
DASH proteases = conditions: WO2013/078059; Narra et al. 2007; cited from earlier work
mDPP4 = target: T1, mDPP4 (Mus musculus, UniProt P28843); experiment: DPP4 processing of recombinant chemokines (SELDI-TOF mass spectrometry); assay type: biochemical; conditions: 10 nM mDPP4, 30 min at 37° C.
T1 construct: purchased Peprotech
Method: Recombinant mDPP4, mCXCL10, mCXCL9, mCXCL11, mCCL2, mCCL3, mCCL4, mCCL5, mCXCL12 and mCCL22 were purchased from Peprotech. For surface-enhanced laser desorption/ionization-[…] (SELDI-TOF) mass spectrometry, chemokines were incubated in the presence or absence of 10 nM of mDPP4 for 30 min at 37° C. The digested product was applied onto an H4 protein chip, following the manufacturer's instructions and analyzed using the PROTEINCHIP™ SYSTEMS SERIES 4000 (Ciphergen). Data were analyzed using CIPHERGENEXPRESS Software.

B16F10 tumors = experiment: Flow cytometry of leukocytes infiltrating B16F10 tumors; assay type: in vivo, mouse; conditions: day 7 B16F10 tumors, 12-14 h after injection
Method: B16F10 and M04 (Ovalbumin-expressing B16F10 cells, gift from C. Reis e Sousa) tumor cells were cultured in DMEM (Gibco) supplemented with 10% FCS (PAA), 0.1 mM non-essential amino acids, 1 mM sodium pyruvate, 10 mM Hepes, 70 μM beta-mercaptoethanol and 23 μg/ml gentamycin (all from Gibco). CT26 colon carcinoma cells were cultured in RPMI (Gibco) supplemented as described for DMEM. Cells for injections were passaged 1-2 times after thawing, before use. WT and genetically modified mice were subcutaneously injected with 2×10^5 B16 or 5×10^5 CT26 cells in the shaved right flank. When indicated, mice received an intra-tumoral injection of 1 μg of recombinant mCXCL10, 5 μg CpG-A in DOPTAP or vehicle control. For blocking of chemokine and chemokine receptors, WT mice were intraperitoneally injected with 100 μg of hamster a-mCXCR3 (clone CXCR3-173, BioLegend), 100 μg of hamster α-mCCR5 (clone HM-CCR5, BioLegend), 50 μg of rat anti-mCXCL10 (clone 134013, R&D systems) and 20 μg of rat-α-mCXCR4 (clone 2B11/CXCR4, BD Biosciences) or with respective isotype antibodies (hamster IgG (clone HTK888, BioLegend, used as control for mCXCR3 and mCCR5 blockage); rat IgG2a (clone 54447, R&D systems, used as control for mCXCL10 blockade) and rat IgG2b (clone A95-1, BD Biosciences, used as control for mCXCR4 blockade). Intraperitoneal injection was done one day before and 4, 8 and 12 days after tumor cell injection. For CXCL10 neutralization, antibodies were injected on day 2, 5, 8 and 11 after tumor cell injection. For immunotherapy protocols, mice were intraperitoneally injected with 100 μg of mouse α-CTLA-4 (clone 9D9, Bioxcell), 200 μg of PD1 (clone RMP1-14, Bioxcell), a combination of 100 μg of α-CTLA-4+200 μg of a-PD1 or control isotypes (100 μg […] and 200 μg rat IgG2a (clone 2A3), both from Bioxcell) on day 3, 6 and 9 after tumor cell implantation. For adoptive cell transfer experiments, Pmel-1 Thy-1.1^+Thy-1.1^+, Cxcr3^−/− Thy-1.1^+Thy-1.2^+ Pmel-1 or OT1 splenocytes were activated ex-vivo, by incubation with 1 nM of human gp100 (for Pmel-1 cells) or […] (for OT1 cells) peptides for 1h at room temperature with agitation. Splenocytes were then washed and resuspended in R10 supplemented with 30U/mL of recombinant human IL-2. CD8^+ T cells were expanded for 6-7 days before used. For analysis of tumor infiltrates, activated Cxcr3^+/+ Thy-1.1^+Thy-1.1^+ and Cxcr3^−/− Thy-1.1^+Thy-1.2^+ transgenic Pmel-1 CD8^+ T cells were mixed in a 1:1 ratio (total 1×10^6 cells) and injected intravenously into gender matched tumor-bearing mice (3 days after tumor cell injection). For analysis of tumor growth, activated OT1 cells were injected intravenously (1×10^5 cells per mouse) into gender matched tumor-bearing mice, 3 days after tumor cell injection. Tumor height and width were measured with a caliper and tumor volume was calculated (Elliptical volume=width^2×height×0.523). The model of metastatic melanoma was achieved by intravenous injection of 2×10^5 B16 tumor cells. 15 days after tumor cell injection, lungs were dissected, placed in Fekete's solution and metastatic foci were counted. Lungs with more than 100 metastatic nodules were defined as 100.
Fluorochrome-conjugated anti-mouse CD3 (clone145-2C11), CD8 (clone 53-6.7), CD4 (clone RM4-5), NK1.1 (clone PK136), CD49b (clone DX5), CD25 (clone PC61), B220 (clone RA3-6B2), Ly6G (clone 1A8), Ly6C (clone AL-21), CD11 b (clone M1/70) Siglec-F (clone E50-2440), MHCII IA-IE (clone M5/114.15.2), CD45.2 (clones 56-0454-82 and 109830), Thy-1.1 (clone HIS51), Thy-1.2 (clone 53-2.1), DPP4 (clone H194-112) and CXCR3 (clone CXCR3-173) were from eBiosciences and BD Biosciences. Fluorochrome conjugated anti-F4/80 (clone CI:A3-1) was from AbDserotec. For exclusion of dead cells, Live/Dead fixable Aqua reagent (Invitrogen) was used. For all staining protocols, cell suspensions were incubated with mouse CD16/CD32 Fc Blocking antibodies (BD Biosciences) prior to antibody. […]

CXCR3-expressing T cells = experiment: Model of trafficking into the peritoneal cavity; assay type: in vivo, mouse; conditions: 1 μg chemokine intraperitoneally
Method: WT and Dpp4^−/− mice were intraperitoneally injected with PBS or 1 μg of mCXCL10, mCXCL9 or mCCL5 (all from Peprotech). At the indicated time points, mice were sacrificed and peritoneal cells were collected in 10 mL of PBS. For thioglycollate induced peritonitis mice were intraperitoneally injected with thioglycollate 3% weight/volume, 24 hours before collection of peritoneal cells.
Fluorochrome-conjugated anti-mouse CD3 (clone145-2C11), CD8 (clone 53-6.7), CD4 (clone RM4-5), NK1.1 (clone PK136), CD49b (clone DX5), CD25 (clone PC61), B220 (clone RA3-6B2), Ly6G (clone 1A8), Ly6C (clone AL-21), CD11 b (clone M1/70) Siglec-F (clone E50-2440), MHCII IA-IE (clone M5/114.15.2), CD45.2 (clones 56-0454-82 and 109830), Thy-1.1 (clone HIS51), Thy-1.2 (clone 53-2.1), DPP4 (clone H194-112) and CXCR3 (clone CXCR3-173) were from eBiosciences and BD Biosciences. Fluorochrome conjugated anti-F4/80 (clone CI:A3-1) was from AbDserotec. For exclusion of dead cells, Live/Dead fixable Aqua reagent (Invitrogen) was used. For all staining protocols, cell suspensions were incubated with mouse CD16/CD32 Fc Blocking antibodies (BD Biosciences) prior to antibody. For analysis of peritoneal cavity infiltrates, cells were washed and incubated with a cocktail of fluorochrome-conjugated antibodies. For analysis of tumor infiltrates, B16F10 tumors were collected at the indicated time points and digested in PBS supplemented with 2.7 mg/ml of Collagenase (Roche) and 23U/ml of Deoxyribonuclease I (Invitrogen) for 30 min, 37° C. Digestion was terminated by adding PBS supplemented with 2% FCS and 5 mM EDTA (Gibco). Tumor cell suspensions were obtained after filtration over a 70 μm cell strainer. For determination of cell numbers, the […] COUNTING BEADS reagent (Invitrogen) was used. Flow cytometry was performed using a BD LSRFORTESSA or a BD CANTO cytometer, with DIVA software. Computer analysis was done with FLOWJO (Treestar).

T1 sequence (P28843 whole entry): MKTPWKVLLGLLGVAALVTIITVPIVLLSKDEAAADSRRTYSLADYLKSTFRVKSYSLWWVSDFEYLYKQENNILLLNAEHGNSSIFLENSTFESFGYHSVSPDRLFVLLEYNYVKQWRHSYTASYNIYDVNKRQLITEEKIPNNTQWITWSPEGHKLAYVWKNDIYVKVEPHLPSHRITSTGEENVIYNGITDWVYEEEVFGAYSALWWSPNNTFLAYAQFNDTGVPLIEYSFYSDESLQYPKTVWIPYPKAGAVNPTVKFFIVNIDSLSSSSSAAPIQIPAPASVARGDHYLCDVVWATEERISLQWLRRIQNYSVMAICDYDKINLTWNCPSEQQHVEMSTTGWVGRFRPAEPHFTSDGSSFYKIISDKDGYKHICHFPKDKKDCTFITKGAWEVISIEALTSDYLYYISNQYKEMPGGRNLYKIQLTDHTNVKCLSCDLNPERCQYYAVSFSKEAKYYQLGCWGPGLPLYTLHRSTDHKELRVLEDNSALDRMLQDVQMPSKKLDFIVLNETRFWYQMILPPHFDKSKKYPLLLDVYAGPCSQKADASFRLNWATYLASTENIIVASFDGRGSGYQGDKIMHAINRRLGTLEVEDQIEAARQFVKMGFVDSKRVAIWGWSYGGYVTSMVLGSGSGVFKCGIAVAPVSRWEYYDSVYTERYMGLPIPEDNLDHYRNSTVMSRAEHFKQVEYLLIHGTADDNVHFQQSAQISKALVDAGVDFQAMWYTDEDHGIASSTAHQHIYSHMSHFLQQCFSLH
Sequence of DPP8 (Q6V1X1 whole entry, species assumed): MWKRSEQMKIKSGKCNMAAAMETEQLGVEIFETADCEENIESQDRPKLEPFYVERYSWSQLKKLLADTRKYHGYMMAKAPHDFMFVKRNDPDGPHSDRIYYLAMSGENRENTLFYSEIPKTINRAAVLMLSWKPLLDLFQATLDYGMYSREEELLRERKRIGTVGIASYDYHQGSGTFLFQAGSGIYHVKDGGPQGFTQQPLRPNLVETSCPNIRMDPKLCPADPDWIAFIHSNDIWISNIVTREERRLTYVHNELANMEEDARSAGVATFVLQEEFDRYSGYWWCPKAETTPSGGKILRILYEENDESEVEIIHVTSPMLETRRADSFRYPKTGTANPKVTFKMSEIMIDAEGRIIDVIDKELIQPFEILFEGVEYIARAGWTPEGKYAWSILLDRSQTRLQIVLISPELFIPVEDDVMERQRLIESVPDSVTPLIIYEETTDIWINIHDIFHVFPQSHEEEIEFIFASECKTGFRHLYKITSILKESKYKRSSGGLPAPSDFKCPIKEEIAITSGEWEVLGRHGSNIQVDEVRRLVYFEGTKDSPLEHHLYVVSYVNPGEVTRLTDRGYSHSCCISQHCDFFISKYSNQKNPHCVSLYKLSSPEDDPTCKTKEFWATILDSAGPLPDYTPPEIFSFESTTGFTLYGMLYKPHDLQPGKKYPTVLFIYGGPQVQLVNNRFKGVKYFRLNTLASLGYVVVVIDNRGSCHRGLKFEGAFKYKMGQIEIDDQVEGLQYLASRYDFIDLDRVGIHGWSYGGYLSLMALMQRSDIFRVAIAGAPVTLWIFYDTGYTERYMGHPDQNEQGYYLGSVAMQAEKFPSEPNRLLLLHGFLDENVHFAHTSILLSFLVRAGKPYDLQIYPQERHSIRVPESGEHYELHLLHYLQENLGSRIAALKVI
Sequence of DPP9 (Q86TI2 whole entry, species assumed): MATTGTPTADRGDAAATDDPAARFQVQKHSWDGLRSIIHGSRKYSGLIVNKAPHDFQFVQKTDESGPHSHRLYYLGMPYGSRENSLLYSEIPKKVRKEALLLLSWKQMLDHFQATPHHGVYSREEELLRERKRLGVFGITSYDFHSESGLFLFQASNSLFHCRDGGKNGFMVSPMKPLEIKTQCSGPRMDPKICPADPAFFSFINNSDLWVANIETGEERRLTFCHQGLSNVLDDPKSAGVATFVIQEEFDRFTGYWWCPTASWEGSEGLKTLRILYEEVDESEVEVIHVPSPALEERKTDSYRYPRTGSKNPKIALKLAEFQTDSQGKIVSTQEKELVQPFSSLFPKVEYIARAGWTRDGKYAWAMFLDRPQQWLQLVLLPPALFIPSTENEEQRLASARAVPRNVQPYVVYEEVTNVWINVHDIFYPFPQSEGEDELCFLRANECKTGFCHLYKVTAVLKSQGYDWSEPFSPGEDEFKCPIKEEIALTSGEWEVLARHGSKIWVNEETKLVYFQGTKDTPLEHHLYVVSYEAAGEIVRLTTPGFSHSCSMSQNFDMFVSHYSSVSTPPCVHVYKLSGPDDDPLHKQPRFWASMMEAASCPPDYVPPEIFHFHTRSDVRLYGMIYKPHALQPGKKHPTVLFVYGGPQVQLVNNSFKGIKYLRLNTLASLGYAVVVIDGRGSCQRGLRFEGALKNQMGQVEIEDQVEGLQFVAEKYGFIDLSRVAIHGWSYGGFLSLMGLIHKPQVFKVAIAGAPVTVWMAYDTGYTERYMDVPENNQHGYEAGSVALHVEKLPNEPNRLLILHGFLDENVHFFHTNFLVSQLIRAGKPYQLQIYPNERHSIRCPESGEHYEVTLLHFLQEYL

susceptibility to DPP4 N-terminal truncation (mDPP4): in vitro cleavage
Molecule: mCCL2: recombinant mouse chemokine (Peprotech)

susceptibility to DPP4 N-terminal truncation (mDPP4): in vitro cleavage
Molecule: mCXCL12: recombinant mouse chemokine (Peprotech)

susceptibility to DPP4 N-terminal truncation (mDPP4): sensitive to DPP4 N-terminal truncation
B1: mCXCL10: recombinant full length mouse CXCL10 (Peprotech) (protein, UniProt P17515 22-98, looked up)
C-X-C motif chemokine 10: IPLARTVRCNCIHIDDGPVRMRAIGKLEIIPASLSCPRVEIIATMKKNDEQRCLNPESKTIKNLMKAFSQKRSKRAP
lymphocyte recruitment into the tumor parenchyma after intratumoral mCXCL10 (B16F10 tumors): no increase in lymphocyte migration
infiltration of CXCR3-expressing T cells into the peritoneal cavity in control mice (CXCR3-expressing T cells; control chow): failed to induce significant infiltration of CXCR3-expressing T cells

susceptibility to DPP4 N-terminal truncation (mDPP4): in vitro cleavage
B2: mCCL4: recombinant mouse chemokine (Peprotech) (protein, UniProt P14097 24-92, looked up)
C-C motif chemokine 4: APMGSDPPTSCCFSYTSRQLHRSFVMDYYETSSLCSKPAVVFLTKRGRQICANPSEPWVTEYMSDLELN

susceptibility to DPP4 N-terminal truncation (mDPP4): in vitro cleavage
B3: mCCL3: recombinant mouse chemokine (Peprotech) (protein, UniProt P10855 24-92, looked up)
C-C motif chemokine 3: APYGADTPTACCFSYSRKIPRQFIVDYFETSSLCSQPGVIFLTKRNRQICADSKETWVQEYITDLELNA

susceptibility to DPP4 N-terminal truncation (mDPP4): in vitro cleavage
B4: mCCL22: recombinant mouse chemokine (Peprotech) (protein, UniProt O88430 25-92, looked up)
C-C motif chemokine 22: GPYGANVEDSICCQDYIRHPLPSRLVKEFFWTSKSCRKPGVVLITVKNRDICADPRQVWVKKLLHKLS

susceptibility to DPP4 N-terminal truncation (mDPP4): insensitive to DPP4-mediated truncation
B5: mCXCL9: recombinant mouse chemokine (Peprotech) (protein, UniProt P18340 22-126, looked up)
C-X-C motif chemokine 9: TLVIRNARCSCISTSRGTIHYKSLKDLKQFAPSPNCNKTEIIATLKNGDQTCLDPDSANVKKLMKEWEKKISQKKKQKRGKKHQKNMKNRKPKTPQSRRRSRKTT
chemokine-induced leukocyte migration into the peritoneal cavity (CXCR3-expressing T cells; WT and Dpp4-/- mice, 6 h): migration of NK cells into the peritoneal cavity

The remaining lines, values behind:

Molecule: Cn1c(=O)cc(N2CCC[C@@H](N)C2)n(Cc2ccccc2C#N)c1=O [alogliptin]
effect on DPP9 activity (DPP9): no effect
effect on DPP8 activity (DPP8): no effect

Molecule: C#C[C@H]1CC[C@@H](C#N)N1C(=O)CNC1(C)CCN(c2cc(C(=O)O)ccn2)CC1 [ABT-279]
selectivity for DPP4 over DPP8 and 9 [1]: highly-selective inhibitors of DPP4
selectivity towards DPP4 [1]: highly selective towards DPP4

Molecule: CC(C)(C)[C@H](N)C(=O)N1CCC[C@H]1B(O)O [ARI-4175]
inhibition of DASH proteases (DASH proteases): inhibiting a multitude of DASH proteases

Molecule: N[C@H]1CC(C(=O)N2CCn3c(nnc3C(F)(F)F)C2)=CC[C@@H]1c1cc(F)c(F)cc1F [ABT-341]
selectivity for DPP4 over DPP8 and 9 [1]: highly-selective inhibitors of DPP4
selectivity towards DPP4 [1]: highly selective towards DPP4

Molecule: N#C[C@@H]1C[C@H](F)CN1C(=O)[C@@H](N)C(c1ccc(F)cc1)c1ccc(F)cc1 [denagliptin]
selectivity for DPP4 over DPP8 and 9 [1]: highly-selective inhibitors of DPP4
selectivity towards DPP4 [1]: highly selective towards DPP4

Molecule: CC(C)[C@H](N)C(=O)N1CCC[C@H]1B(O)O [Val-boroPro]
inhibition of DASH proteases (DASH proteases): inhibiting a multitude of DASH proteases

Molecule: COc1cc2c(cc1OC)[C@@H]1C[C@H](N)[C@@H](N3C[C@@H](CF)CC3=O)CN1CC2 [carmegliptin]
selectivity for DPP4 over DPP8 and 9 [1]: highly-selective inhibitors of DPP4
selectivity towards DPP4 [1]: highly selective towards DPP4
